This is an account of results in PMC4389562, “Antigiardial activity of novel triazolyl-quinolone-based chalcone derivatives: when oxygen makes the difference” (Frontiers in Microbiology, 2015).

Molecules are shown by their SMILES.

The test system of one data set is Giardia intestinalis trophozoites. As to the kind of experiment: Drug susceptibility of Giardia trophozoites, ATP level by luminescence (BacTiter-Glo), 48 h incubation, anaerobic or microaerobic. The settings on record: SI = IC50,Caco-2/IC50,Giardia; Giardia under anaerobiosis. It is filed as cell-based, Giardia intestinalis strain WB clone C6. On the procedure:
Trophozoites of G. intestinalis strain WB clone C6 (ATCC No. 50803TM) were cultured axenically at 37^∘C in 25-cm^2 flasks containing Diamond's TYI-S-33 medium supplemented with 10% bovine calf serum, 1 mg/mL bovine bile, 0.1 g/L streptomycin and 100 U/mL penicillin. Typically, 50 ml medium was inoculated with 25 × 10^6 cells and after 2 days cells were harvested by chilling the flasks on ice for 30 min for drug susceptibility assays. […] The assays were performed following the procedure described in [Bahadur et al. (2014)], using sterile 96-well white clear-bottom plates. […] Each drug concentration was tested in at least six replicates. MTZ was used as an internal positive control in the assay. The microtiter plates were then incubated at 37^∘C under anaerobic or microaerobic conditions, ensured by the Anaerocult® A or the Anaerocult® […] (Merck), respectively. […] Following 48 h incubation with the compound to be tested, 100 μL of the BacTiter-Glo^TM Microbial Cell Viability Assay System reagent (Promega) was added to each well for one-step lysis and ATP level detection. Plates were then incubated at room temperature for 15 min and ATP levels finally detected by luminescence on a plate reader (Wallac Victor3 1420 Multilabel Counter, PerkinElmer). Luminometric data were calibrated using ATP standard curves and normalized to the ATP level measured in control DMSO-treated cells (taken as 100%). The measured ATP level percentage was plotted as a function of the compound concentration and the half-maximal inhibitory concentration (IC50) was obtained by fitting the resulting titration profile to the Hill equation ([Goutelle et al., 2008]). The selectivity index (SI) of the compounds was then calculated as the ratio between the IC50 value measured on human cells over the value determined on Giardia trophozoites (SI = IC50,Caco-2/IC50,Giardia). The antigiardial activity of the novel compounds 23-67 was tested under both anaerobic and microaerobic conditions. According to ([Dunn et al., 2010]; [Bahadur et al., 2014]), susceptibility of Giardia trophozoites to increasing concentrations of each compound was assessed based on ATP level determination by luminescence. Dose-response curves for each compound were obtained after 48 h-incubation and compared to the data collected under identical conditions with MTZ, the drug of choice for treatment of giardiasis. […] Typical dose-response curves are shown in Figure 2, whereas the IC50 values measured for the synthetic compounds and MTZ under anaerobic and microaerobic conditions are reported in Table 1. […] Under anaerobic conditions, 18 out of the 45 synthetic compounds were as effective as MTZ or more under identical conditions (see Table 1).
`COc1ccc(-n2cc(Cn3c(=O)c(/C=C/C(=O)c4ccc(Br)cc4)cc4ccccc43)nn2)cc1` [Compound 27]: the “Selectivity (IC50,Caco/IC50,Giardia) Anaerobiosis” value is at least 2.

For `Cc1ccc(C(=O)/C=C/c2cc3ccccc3n(Cc3cn(-c4ccc(F)cc4)nn3)c2=O)cc1` [Compound 46], the “Selectivity (IC50,Caco/IC50,Giardia) Anaerobiosis” value is 2,5.

On to `O=C(/C=C/c1cc2ccccc2n(Cc2cn(-c3ccc(F)cc3)nn2)c1=O)c1ccccc1F` [Compound 41], for which the “Selectivity (IC50,Caco/IC50,Giardia) Anaerobiosis” value is on record as 5,8.

For the compound `Cc1ccc(-n2cc(Cn3c(=O)c(/C=C/C(=O)c4cccc(F)c4)cc4ccccc43)nn2)cc1` [Compound 33], the “Selectivity (IC50,Caco/IC50,Giardia) Anaerobiosis” value is on record as 3,4.

For the compound `COc1ccc(-n2cc(Cn3c(=O)c(/C=C/C(=O)c4cccc(OC)c4)cc4ccccc43)nn2)cc1` [Compound 30], the “Selectivity (IC50,Caco/IC50,Giardia) Anaerobiosis” value was at least 33.

Consider `O=C(/C=C/c1cc2ccccc2n(Cc2cn(-c3ccccc3)nn2)c1=O)c1ccc(Br)cc1` [Compound 63], for which the “Selectivity (IC50,Caco/IC50,Giardia) Anaerobiosis” value is given as at least 7.

As for `COc1ccccc1C(=O)/C=C/c1cc2ccccc2n(Cc2cn(-c3ccc(C)cc3)nn2)c1=O` [Compound 38], the “Selectivity (IC50,Caco/IC50,Giardia) Anaerobiosis” value was 6,9.

Take `O=C(/C=C/c1cc2ccccc2n(Cc2cn(-c3ccc(Cl)cc3)nn2)c1=O)c1ccc(Br)cc1` [Compound 54]: the “Selectivity (IC50,Caco/IC50,Giardia) Anaerobiosis” value is listed as at least 2.

The same data set, now with this note: SI = IC50,Caco-2/IC50,Giardia; Giardia under microaerobiosis.
On to `COc1ccc(-n2cc(Cn3c(=O)c(/C=C/C(=O)c4ccc(Br)cc4)cc4ccccc43)nn2)cc1` [Compound 27], for which the “Selectivity (IC50,Caco/IC50,Giardia) Microaerobiosis” value was at least 10.

As to `COc1ccc(-n2cc(Cn3c(=O)c(/C=C/C(=O)c4cccc(F)c4)cc4ccccc43)nn2)cc1` [Compound 24], the “Selectivity (IC50,Caco/IC50,Giardia) Microaerobiosis” value is reported as at least 6.

On to `Cc1ccc(C(=O)/C=C/c2cc3ccccc3n(Cc3cn(-c4ccc(F)cc4)nn3)c2=O)cc1` [Compound 46], for which the “Selectivity (IC50,Caco/IC50,Giardia) Microaerobiosis” value is 15,8.

`O=C(/C=C/c1cc2ccccc2n(Cc2cn(-c3ccc(F)cc3)nn2)c1=O)c1ccccc1F` [Compound 41]: the “Selectivity (IC50,Caco/IC50,Giardia) Microaerobiosis” value is 26.

`Cc1ccc(-n2cc(Cn3c(=O)c(/C=C/C(=O)c4cccc(F)c4)cc4ccccc43)nn2)cc1` [Compound 33]: the “Selectivity (IC50,Caco/IC50,Giardia) Microaerobiosis” value is given as 19,1.

As to `COc1ccc(-n2cc(Cn3c(=O)c(/C=C/C(=O)c4cccc(OC)c4)cc4ccccc43)nn2)cc1` [Compound 30], the “Selectivity (IC50,Caco/IC50,Giardia) Microaerobiosis” value is given as at least 153.

`O=C(/C=C/c1cc2ccccc2n(Cc2cn(-c3ccccc3)nn2)c1=O)c1ccc(Br)cc1` [Compound 63]: the “Selectivity (IC50,Caco/IC50,Giardia) Microaerobiosis” value is at least 50.

Turning to `COc1ccccc1C(=O)/C=C/c1cc2ccccc2n(Cc2cn(-c3ccc(C)cc3)nn2)c1=O` [Compound 38], the “Selectivity (IC50,Caco/IC50,Giardia) Microaerobiosis” value is 34,3.

As for `O=C(/C=C/c1cc2ccccc2n(Cc2cn(-c3ccc(Cl)cc3)nn2)c1=O)c1ccc(Br)cc1` [Compound 54], the “Selectivity (IC50,Caco/IC50,Giardia) Microaerobiosis” value is on record as at least 10.

Still in this data set, the particulars now being: anaerobic conditions (Anaerocult A), 48 h, 37 °C, ATP level; read-out: Giardia (anaerobiosis) IC50.
A word on the IC50: it is the concentration at which inhibition is half-maximal. Consider `COc1ccc(-n2cc(Cn3c(=O)c(/C=C/C(=O)c4ccc(Br)cc4)cc4ccccc43)nn2)cc1` [Compound 27], for which the IC50 was determined as 9.6 µM.

For `COc1ccc(-n2cc(Cn3c(=O)c(/C=C/C(=O)c4cccc(F)c4)cc4ccccc43)nn2)cc1` [Compound 24], the IC50 was at least 100 µM.

On to `Cc1ccc(C(=O)/C=C/c2cc3ccccc3n(Cc3cn(-c4ccc(F)cc4)nn3)c2=O)cc1` [Compound 46], for which the IC50 stood at 2.5 µM.

Consider `O=C(/C=C/c1cc2ccccc2n(Cc2cn(-c3ccc(F)cc3)nn2)c1=O)c1ccccc1F` [Compound 41], for which the IC50 amounted to 0.9 µM.

For the compound `Cc1ccc(-n2cc(Cn3c(=O)c(/C=C/C(=O)c4cccc(F)c4)cc4ccccc43)nn2)cc1` [Compound 33], the IC50 stood at 4 µM.

With `COc1ccc(-n2cc(Cn3c(=O)c(/C=C/C(=O)c4cccc(OC)c4)cc4ccccc43)nn2)cc1` [Compound 30], the IC50 worked out at 5.9 µM.

Turning to `O=C(/C=C/c1cc2ccccc2n(Cc2cn(-c3ccccc3)nn2)c1=O)c1ccc(Br)cc1` [Compound 63], the half-inhibitory concentration (IC50) was determined as 6.3 µM.

With `COc1ccccc1C(=O)/C=C/c1cc2ccccc2n(Cc2cn(-c3ccc(C)cc3)nn2)c1=O` [Compound 38], the IC50 was 2 µM.

As for `O=C(/C=C/c1cc2ccccc2n(Cc2cn(-c3ccc(Cl)cc3)nn2)c1=O)c1ccc(Br)cc1` [Compound 54], the IC50 is 9.2 µM.

Still in this data set, the particulars now being: anaerobic conditions, relative to MTZ.
Take `O=C(/C=C/c1cc2ccccc2n(Cc2cn(-c3ccc(F)cc3)nn2)c1=O)c1ccccc1F` [Compound 41]: the “fold more efficient than MTZ against Giardia” value is “three to fourfold”.

Still in this data set, the particulars now being: microaerobic conditions (~5% O2, Anaerocult C), 48 h, 37 °C, ATP level; read-out: Giardia (microaerobiosis) IC50.
For the compound `COc1ccc(-n2cc(Cn3c(=O)c(/C=C/C(=O)c4ccc(Br)cc4)cc4ccccc43)nn2)cc1` [Compound 27], the IC50 was 2 µM.

With `COc1ccc(-n2cc(Cn3c(=O)c(/C=C/C(=O)c4cccc(F)c4)cc4ccccc43)nn2)cc1` [Compound 24], the IC50 stood at 8.4 µM.

For `Cc1ccc(C(=O)/C=C/c2cc3ccccc3n(Cc3cn(-c4ccc(F)cc4)nn3)c2=O)cc1` [Compound 46], the concentration for half-maximal inhibition (IC50) was 0.4 µM.

Turning to `O=C(/C=C/c1cc2ccccc2n(Cc2cn(-c3ccc(F)cc3)nn2)c1=O)c1ccccc1F` [Compound 41], the IC50 turned out to be 0.2 µM.

Regarding `Cc1ccc(-n2cc(Cn3c(=O)c(/C=C/C(=O)c4cccc(F)c4)cc4ccccc43)nn2)cc1` [Compound 33], the concentration for half-maximal inhibition (IC50) came to 0.7 µM.

Turning to `COc1ccc(-n2cc(Cn3c(=O)c(/C=C/C(=O)c4cccc(OC)c4)cc4ccccc43)nn2)cc1` [Compound 30], the IC50 is 1.3 µM.

With `O=C(/C=C/c1cc2ccccc2n(Cc2cn(-c3ccccc3)nn2)c1=O)c1ccc(Br)cc1` [Compound 63], the concentration for half-maximal inhibition (IC50) was 1 µM.

With `COc1ccccc1C(=O)/C=C/c1cc2ccccc2n(Cc2cn(-c3ccc(C)cc3)nn2)c1=O` [Compound 38], the IC50 was found to be 0.4 µM.

Turning to `O=C(/C=C/c1cc2ccccc2n(Cc2cn(-c3ccc(Cl)cc3)nn2)c1=O)c1ccc(Br)cc1` [Compound 54], the IC50 is 1.9 µM.

A further data set relates to Caco-2 cells. As to the kind of experiment: Counter-screen on Caco-2 cells, ATP level by luminescence (ATPlite), 48 h incubation. It is filed as cell-based, human. The conditions noted are these: atmospheric O2, 5% CO2, 48 h, 37 °C. On the procedure: Trophozoites of G. intestinalis strain WB clone C6 (ATCC No. 50803TM) were cultured axenically at 37^∘C in 25-cm^2 flasks containing Diamond’s TYI-S-33 medium supplemented with 10% bovine calf serum, 1 mg/mL bovine bile, 0.1 g/L streptomycin and 100 U/mL penicillin. […] Human epithelial colorectal adenocarcinoma (Caco-2) cells were grown in 25-cm^2 flasks in EMEM supplemented with 1% (v/v) non-essential amino acids, 2 mM glutamine, 5% (v/v) fetal bovine serum, 0.1 g/L streptomycin, and 100 U/mL penicillin.
Cells were detached with 0.5% trypsin-EDTA and seeded in sterile 96-well white clear-bottom plates at the same density of Giardia trophozoites and at increasing concentration of the compound to be tested, as described above. The assays were carried out exactly as reported for the Giardia trophozoites, except that the plates were incubated (still at 37^∘C) at atmospheric O2 level, 5% CO2, and 95% humidity. Each drug concentration was tested in at least seven replicates. MTZ was used as an internal […] control in the assay. Following 48 h incubation with each compound, according to the manufacturer instructions, 100 μL of the ATPlite^TM luminescence assay system (Perkin Elmer) was added to each well for one-step lysis and ATP level detection by luminescence.
Luminometric data were calibrated using ATP standard curves and normalized to the ATP level measured in control DMSO-treated cells (taken as 100%). The measured ATP level percentage was plotted as a function of the compound concentration and the half-maximal inhibitory concentration (IC50) was obtained by fitting the resulting titration profile to the Hill equation ([Goutelle et al., 2008]). The selectivity index (SI) of the compounds was then calculated as the ratio between the IC50 value measured on human cells over the value determined on Giardia trophozoites (SI = IC50,Caco-2/IC50,Giardia).
Selectivity of the newly synthesized compounds toward Giardia was assessed by running a counter-screen on human epithelial Caco-2 cells. […] This allowed us to calculate the compounds SI, defined as the ratio between the IC50 value measured on human cells over the value determined on Giardia trophozoites.
Take `COc1ccc(-n2cc(Cn3c(=O)c(/C=C/C(=O)c4ccc(Br)cc4)cc4ccccc43)nn2)cc1` [Compound 27]: the IC50 was at least 20 µM.

`COc1ccc(-n2cc(Cn3c(=O)c(/C=C/C(=O)c4cccc(F)c4)cc4ccccc43)nn2)cc1` [Compound 24] returned an IC50 of at least 50 µM.

In the case of `Cc1ccc(C(=O)/C=C/c2cc3ccccc3n(Cc3cn(-c4ccc(F)cc4)nn3)c2=O)cc1` [Compound 46], the half-inhibitory concentration (IC50) is 6.3 µM.

Compound `O=C(/C=C/c1cc2ccccc2n(Cc2cn(-c3ccc(F)cc3)nn2)c1=O)c1ccccc1F` [Compound 41] returned an IC50 of 5.2 µM.

For the compound `Cc1ccc(-n2cc(Cn3c(=O)c(/C=C/C(=O)c4cccc(F)c4)cc4ccccc43)nn2)cc1` [Compound 33], the IC50 stood at 13.4 µM.

`COc1ccc(-n2cc(Cn3c(=O)c(/C=C/C(=O)c4cccc(OC)c4)cc4ccccc43)nn2)cc1` [Compound 30] had an IC50 of at least 200 µM.

The compound `O=C(/C=C/c1cc2ccccc2n(Cc2cn(-c3ccccc3)nn2)c1=O)c1ccc(Br)cc1` [Compound 63] displayed an IC50 of at least 50 µM.

Consider `COc1ccccc1C(=O)/C=C/c1cc2ccccc2n(Cc2cn(-c3ccc(C)cc3)nn2)c1=O` [Compound 38], for which the IC50 is 13.7 µM.

In turn, `O=C(/C=C/c1cc2ccccc2n(Cc2cn(-c3ccc(Cl)cc3)nn2)c1=O)c1ccc(Br)cc1` [Compound 54] yielded an IC50 of at least 20 µM.
